Measured values: patent publication US9669001B2, “Antimicrobial composition” (CONVATEC TECHNOLOGIES INC., priority 2008, dated 2017)

What was measured:
Format in all cases: cell-based
[1] = system: P. aeruginosa biofilms; experiment: Minimum Biofilm Eradication Concentration (MBEC) method with cyan LED illumination; details: combinations in sterile water, cyan LED lamp; FIG. 4
[2] = system: P. aeruginosa biofilms; experiment: Photo-catalytic therapy, in vitro wound biofilm model (pork belly)
[3] = system: S. aureus biofilms; experiment: as above; details: higher doses of RB and light, post-treatment rinse; FIG. 2

Row | Compound | effect on the action of RB and light against biofilms [1] | biofilm removal (reduction in P. aeruginosa) ([2]; 25 μM RB, PCT with post-treatment rinse step, FIG. 1) [log] | P. aeruginosa biofilm bacteria cell killing on raising dose ([2]; RB and light dose increased five-fold, no post-treatment rinse, FIG. 1 bars 2 & 4) | biofilm cell reductions [3]
1 | O=C(O)CN(CCN(CC(=O)O)CC(=O)O)CC(=O)O [EDTA, ethylene diamine tetraacetic acid] | potentiates the action of RB and light in a concentration-dependent manner | – | – | –
2 | O=C1OC2(c3cc(I)c(O)c(I)c3Oc3c2cc(I)c(O)c3I)c2c(Cl)c(Cl)c(Cl)c(Cl)c21 [Rose Bengal, 4,5,6,7-Tetrachloro-3′,6′-dihydroxy-2′,4′,5′,7′-tetriodo-3H-spiro[isobenzofuran-1,9′-xanthen]-3-one] | – | 2 | significantly increased reduction | over 3 log10
3 | dialkyl dimethyl ammonium chloride [DDAC] | potentiates the action of RB and light in a concentration-dependent manner | – | – | –
